Results on 6 compounds are retold here after PubChem BioAssay (NCI).

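48-hour exposure; five concentrations; linearly interpolated endpoints. GI50 is the concentration that inhibits growth by half. Definition used: TGI = concentration required for complete inhibition of growth.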

Test systems include NCI/ADR-RES ovarian; RXF 393 renal; T-47D breast; SF-268 CNS; SK-MEL-5 melanoma; OVCAR-3 ovarian; SK-MEL-28 melanoma; NCI-H226 lung.
What all share (experiment): NCI anticancer screen, dose series, 48 h

On to `Cc1cc(C)c(O)c(CN(C)Cc2cc(Cl)cc(Cl)c2O)c1`, for which the GI50 was 2.89 µM in the assay with NCI/ADR-RES ovarian; 7.34 µM with RXF 393 renal; 4.07 µM in the assay with T-47D breast; 3.26 µM in the assay with SF-268 CNS; 5.57 µM in the assay with SK-MEL-5 melanoma; 2400 nM in the assay with OVCAR-3 ovarian. Besides, the figures for the GI50 with SK-MEL-28 melanoma and with NCI-H226 lung were 11.4 µM and 6.56 µM, respectively. Also, the TGI was found to be 12.5 µM with NCI/ADR-RES ovarian; 23.6 µM with RXF 393 renal; 15.2 µM in the assay on T-47D breast; 19.2 µM with SF-268 CNS; 18.2 µM in the assay with SK-MEL-5 melanoma; 8.16 µM in the assay on OVCAR-3 ovarian. For the same compound, the TGI in the assay with SK-MEL-28 melanoma was found to be 24 µM; in the assay on NCI-H226 lung, 23.1 µM.

Regarding `COC(=O)[C@]12CC[C@@H](C)[C@H](C)[C@@H]1C1=CC[C@@H]3[C@@]4(C)C=C(O)C(=O)[C@@]5(C)COC(=C54)C[C@@]3(C)[C@]1(C)CC2`, the GI50 was 14.3 µM in the assay with NCI/ADR-RES ovarian; 7.09 µM in the assay on RXF 393 renal; 3.66 µM with T-47D breast; 13.3 µM in the assay with SF-268 CNS; 4.25 µM in the assay with SK-MEL-5 melanoma; 11500 nM with OVCAR-3 ovarian. Also, the values for the GI50 with SK-MEL-28 melanoma and with NCI-H226 lung were 16.4 µM and 15.1 µM, respectively. In addition, the TGI amounted to 45.6 µM in the assay with NCI/ADR-RES ovarian; 24.9 µM in the assay on RXF 393 renal; 20.7 µM in the assay with T-47D breast; 31.6 µM in the assay on SF-268 CNS; 15.3 µM in the assay on SK-MEL-5 melanoma; 24.4 µM with OVCAR-3 ovarian. For the same compound, the TGI was 38.9 µM in the assay with SK-MEL-28 melanoma and 41.3 µM in the assay with NCI-H226 lung.

Regarding `C#Cc1c(C(N)=O)ncn1C1OC(COP(=O)(OCc2ccc([N+](=O)[O-])o2)N(C)CCCCCl)C(O)C1O` (stereo unspecified), the GI50 with NCI/ADR-RES ovarian was 15.1 µM; with RXF 393 renal it was above 100 µM; with T-47D breast, 12.7 µM; with SF-268 CNS, 45.1 µM; with SK-MEL-5 melanoma, 2.83 µM; in the assay on OVCAR-3 ovarian, 15100 nM. Further, the values for the GI50 in the assay with SK-MEL-28 melanoma and in the assay with NCI-H226 lung were 27.3 µM and above 100 µM, respectively. Also, the TGI in the assay with NCI/ADR-RES ovarian was above 100 µM; in the assay on RXF 393 renal, above 100 µM; in the assay with T-47D breast, above 100 µM; in the assay with SF-268 CNS, above 100 µM; in the assay with SK-MEL-5 melanoma, 26.5 µM; in the assay with OVCAR-3 ovarian it was 63.5 µM. Further, the TGI with SK-MEL-28 melanoma and in the assay with NCI-H226 lung was above 100 µM in each case.

As to `Cc1ccc2c(O)c(O)cc(NC(C)CCCN)c2n1` (stereo unspecified), the GI50 in the assay with NCI/ADR-RES ovarian is above 66.9 µM; with RXF 393 renal, above 69.1 µM; with T-47D breast, 6.57 µM; in the assay on SF-268 CNS it was 16.7 µM; in the assay with SK-MEL-5 melanoma it was 9.38 µM; in the assay with OVCAR-3 ovarian it was 2120 nM. The GI50 with SK-MEL-28 melanoma is 27.3 µM; in the assay with NCI-H226 lung, 44.9 µM. For the same compound, the TGI in the assay with NCI/ADR-RES ovarian is above 100 µM; in the assay with RXF 393 renal, above 100 µM; with T-47D breast, 38.3 µM; with SF-268 CNS, 66.2 µM; in the assay with SK-MEL-5 melanoma, 25.3 µM; in the assay on OVCAR-3 ovarian, 5.26 µM. Further, the TGI was 55.3 µM in the assay on SK-MEL-28 melanoma and above 100 µM in the assay on NCI-H226 lung.

Take `C=C1C(=O)O[C@H]2[C@H]1CC/C(COC(=O)NCCc1c[nH]c3ccc(OC)cc13)=C\CC[C@@]1(C)O[C@@H]21`: the GI50 with NCI/ADR-RES ovarian was 7.57 µM; with RXF 393 renal it was 1.46 µM; in the assay with T-47D breast it was 1.81 µM; in the assay with SF-268 CNS it was 3 µM; in the assay on SK-MEL-5 melanoma, 3.13 µM; with OVCAR-3 ovarian it was 1440 nM. Besides, the values for the GI50 in the assay with SK-MEL-28 melanoma and in the assay on NCI-H226 lung were 1.65 µM and 1.88 µM, respectively. The TGI in the assay on NCI/ADR-RES ovarian was found to be 29.2 µM; in the assay with RXF 393 renal it was 2.92 µM; in the assay with T-47D breast it was 4.53 µM; in the assay with SF-268 CNS it was 13.1 µM; in the assay on SK-MEL-5 melanoma it was 10.6 µM; with OVCAR-3 ovarian, 3.92 µM. Besides, the TGI in the assay with SK-MEL-28 melanoma was found to be 3.22 µM; in the assay on NCI-H226 lung, 3.61 µM.

As for `O=C(c1ccco1)c1c(C(F)(F)F)n([O-])c2ccccc2[n+]1=O`, the GI50 in the assay with NCI/ADR-RES ovarian is 0.879 µM; in the assay with RXF 393 renal, 1.43 µM; in the assay with T-47D breast, 1.97 µM; in the assay on SF-268 CNS it was 0.515 µM; in the assay with SK-MEL-5 melanoma, 0.999 µM; in the assay with OVCAR-3 ovarian it was 735 nM. Also, the GI50 in the assay on SK-MEL-28 melanoma is 15.9 µM; in the assay with NCI-H226 lung, 0.665 µM. In addition, the TGI with NCI/ADR-RES ovarian is 12.7 µM; in the assay on RXF 393 renal, 9.45 µM; in the assay on T-47D breast, 29.7 µM; in the assay with SF-268 CNS, 2.56 µM; in the assay on SK-MEL-5 melanoma, 3.68 µM; in the assay with OVCAR-3 ovarian, 3.88 µM. Further, the results for the TGI in the assay on SK-MEL-28 melanoma and in the assay with NCI-H226 lung were 50 µM and 4.31 µM, respectively.
